These results are taken from patent US12534469B2 (CHILDREN'S HOSPITAL MEDICAL CENTER, priority 2020, dated 2026).

Type in all cases: biochemical
One assay deals with T1, IRAK1 (Homo sapiens, UniProt P51617).
T1 construct: purchased Reaction Biology (RBC HotSpot Kinase Assay)
In words: RBC HotSpot Kinase Assay, IRAK1. From the text: (§1) This assay uses the isolated kinase enzyme. This assay is very useful for determining competition of the inhibitor for ATP and/or substrates and for measuring the kinetics of enzyme inhibition. […] Unlike kinase binding assays that measure competition for ATP, the HotSpot Kinase Assay is a functional assay that measures catalytic activity; as such it measures relative functional potency regardless of the mechanism of enzyme inhibition. This assay uses the form of the various enzymes that are easiest to express, which may not necessarily be the form of the enzyme that exist in the cell. (Sometimes the carboxy terminus has been truncated to aid in expression, or, if it is a receptor kinase, the enzyme itself is isolated from the other parts of the receptor that are involved in regulating kinase activity.)
(§2) The reagent used was as follows: Base Reaction buffer; 20 mM Hepes (pH 7.5), 10 mM MgCl2, 1 mM EGTA, 0.01% Brij35, 0.02 mg/ml BSA, 0.1 mM Na3VO4, 2 mM DTT, 1% DMSO. Required cofactors were added individually to each kinase reaction.
(§3) The reaction procedure was as follows: • 1) Substrates were prepared in freshly prepared Reaction Buffer. • 2) Any required cofactors were delivered to the substrate solution above. • 3) Kinase was delivered into the substrate solution and gently mixed. • 4) Compounds were delivered in 100% DMSO into the kinase reaction mixture by Acoustic technology (Echo550; nanoliter range), followed by incubation for 20 min at room temp. • 5) ^33P-ATP was delivered into the reaction mixture to initiate the reaction. • 6) The mixture was incubated for 2 hours at room temperature. • 7) Kinase activity was detected by P81 filter-binding method.

A further assay deals with T2, IRAK4 (Homo sapiens, UniProt Q9NWZ3).
T2 sequence (Q9NWZ3 1-460): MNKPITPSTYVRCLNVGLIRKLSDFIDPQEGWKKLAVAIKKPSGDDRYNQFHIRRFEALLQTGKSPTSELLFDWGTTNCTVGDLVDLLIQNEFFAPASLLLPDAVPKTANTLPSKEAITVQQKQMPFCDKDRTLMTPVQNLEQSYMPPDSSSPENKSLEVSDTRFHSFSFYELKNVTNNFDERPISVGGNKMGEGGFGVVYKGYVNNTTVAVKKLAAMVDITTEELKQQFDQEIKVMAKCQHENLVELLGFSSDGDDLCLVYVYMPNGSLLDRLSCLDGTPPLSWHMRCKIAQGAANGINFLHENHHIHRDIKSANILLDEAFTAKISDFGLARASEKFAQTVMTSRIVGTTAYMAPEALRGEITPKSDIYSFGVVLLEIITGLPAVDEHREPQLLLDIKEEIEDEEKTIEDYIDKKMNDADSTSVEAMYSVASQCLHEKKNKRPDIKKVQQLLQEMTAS
In words: RBC HotSpot Kinase Assay, IRAK4. Also noted: purchased Reaction Biology (RBC HotSpot Kinase Assay).
Description: as §1, §2, §3

A further assay addresses T3, FLT3 (Homo sapiens, UniProt P36888).
T3 construct: purchased Reaction Biology (RBC HotSpot Kinase Assay)
T3 sequence (P36888 564-958 limits assumed): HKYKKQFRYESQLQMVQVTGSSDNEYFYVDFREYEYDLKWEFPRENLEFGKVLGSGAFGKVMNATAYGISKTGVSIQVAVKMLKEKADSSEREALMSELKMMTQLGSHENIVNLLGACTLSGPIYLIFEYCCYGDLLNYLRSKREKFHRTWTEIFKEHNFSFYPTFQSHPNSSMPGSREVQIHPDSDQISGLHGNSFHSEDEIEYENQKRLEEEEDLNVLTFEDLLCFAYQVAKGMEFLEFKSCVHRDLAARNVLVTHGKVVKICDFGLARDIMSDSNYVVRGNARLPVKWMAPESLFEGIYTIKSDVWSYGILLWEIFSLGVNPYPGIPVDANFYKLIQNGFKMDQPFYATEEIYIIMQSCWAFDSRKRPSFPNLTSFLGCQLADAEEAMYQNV
The experiment in a line: RBC HotSpot Kinase Assay, FLT3.
Description: as §1, §2, §3

T1 sequence (P51617 whole entry): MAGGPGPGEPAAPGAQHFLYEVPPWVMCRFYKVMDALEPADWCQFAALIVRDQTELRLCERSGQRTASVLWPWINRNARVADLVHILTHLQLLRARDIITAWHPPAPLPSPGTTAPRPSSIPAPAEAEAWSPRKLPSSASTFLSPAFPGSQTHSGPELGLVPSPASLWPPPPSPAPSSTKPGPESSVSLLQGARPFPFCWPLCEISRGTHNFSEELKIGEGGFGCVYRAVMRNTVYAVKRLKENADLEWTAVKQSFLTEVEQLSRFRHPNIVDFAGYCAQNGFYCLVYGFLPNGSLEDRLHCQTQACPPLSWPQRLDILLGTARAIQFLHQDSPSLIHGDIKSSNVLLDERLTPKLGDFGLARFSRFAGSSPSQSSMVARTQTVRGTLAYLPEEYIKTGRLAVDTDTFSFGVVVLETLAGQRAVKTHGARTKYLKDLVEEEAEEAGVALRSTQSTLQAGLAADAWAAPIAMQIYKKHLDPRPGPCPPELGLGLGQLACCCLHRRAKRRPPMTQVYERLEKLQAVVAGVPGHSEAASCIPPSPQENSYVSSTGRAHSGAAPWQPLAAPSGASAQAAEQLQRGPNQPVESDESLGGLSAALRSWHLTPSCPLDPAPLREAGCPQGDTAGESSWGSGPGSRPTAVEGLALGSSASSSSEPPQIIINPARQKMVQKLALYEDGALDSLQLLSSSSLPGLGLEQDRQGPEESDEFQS

For `F[C@H]1CNC[C@@H]1Nc1cccc(-c2cnc3ccc(C(F)(F)F)nn23)n1` [Compound 79, N-((3S,4S)-4-fluoropyrrolidin-3-yl)-6-(6-(trifluoromethyl)imidazo[1,2-b]pyridazin-3-yl)pyridin-2-amine], the IC50 (usually the concentration at which inhibition is half-maximal) was 4570 nM against IRAK1, 21 nM against IRAK4 and 3 nM against FLT3.
The like results for `CC(C)(O)Cn1cc(-c2ccc3ncc(-c4cccc(N[C@@H]5CCCNC5)n4)n3n2)cn1` [Compound 18, (R)-2-methyl-1-(4-(3-(6-(piperidin-3-ylamino)pyridin-2-yl)imidazo[1,2-b]pyridazin-6-yl)-1 H-pyrazol-1-yl)propan-2-ol] were, in that order, 2440 nM, 1410 nM and 4 nM.
With `CN(C)c1ccc2ncc(-c3cccc(N[C@H]4CNC[C@@H]4F)n3)n2n1` [Compound 90, 3-(6-(((3S,4S)-4-fluoropyrrolidin-3-yl)amino)pyridin-2-yl)-N,N-dimethylimidazo[1,2-b]pyridazin-6-amine], the IC50 turned out to be 6290 nM against IRAK1, 61 nM against IRAK4 and 4 nM at FLT3.
Taken in the same sequence, the figures for `c1cc(NC2CCNC2)nc(-c2cnc3ccc(-c4cnn(C5CCOCC5)c4)nn23)c1` (stereo not drawn) [Compound 29, N-(pyrrolidin-3-yl)-6-(6-(1-(tetrahydro-2H-pyran-4-yl)-1H-pyrazol-4-yl)imidazo[1,2-b]pyridazin-3-yl)pyridin-2-amine] were 13000 nM, 2460 nM and 4 nM.
Take `Cn1cc(-c2ccc3ncc(-c4cccc(NC5CCC6(CNC6)C5)n4)n3n2)cn1` (stereo not drawn) [Compound 49, N-(6-(6-(1-methyl-1H-pyrazol-4-yl)imidazo[1,2-b]pyridazin-3-yl)pyridin-2-yl)-2-azaspiro[3.4]octan-6-amine]: the IC50 against IRAK1 worked out at 1200 nM; against IRAK4, 204 nM; against FLT3, 2 nM.
As for `COc1cc2ncc(-c3cccc(N[C@H]4CNC[C@@H]4C)n3)n2nc1C1CC1` [Compound 98, 6-(6-cyclopropyl-7-methoxyimidazo[1,2-b]pyridazin-3-yl)-N-((3R,4S)-4-methylpyrrolidin-3-yl)pyridin-2-amine], the figures for the IC50 against IRAK1, at IRAK4 and against FLT3 were 375 nM, 2 nM and below 0.5 nM, respectively.
For the compound `F[C@H]1CNC[C@@H]1Nc1cccc(-c2cnc3ccc(-c4cnn(C5CC5)c4)nn23)n1` [Compound 3, 6-(6-(1-cyclopropyl-1 H-pyrazol-4-yl)imidazo[1,2-b]pyridazin-3-yl)-N-((3S,4S)-4-fluoropyrrolidin-3-yl)pyridin-2-amine], the IC50 at IRAK1 stood at 449 nM; against IRAK4, 71 nM; on FLT3, 1 nM.
Consider `c1cc(NC2CCC3(CNC3)C2)nc(-c2cnc3ccc(-c4cn[nH]c4)nn23)c1` (stereo not drawn) [Compound 45, N-(6-(6-(1H-pyrazol-4-yl)imidazo[1,2-b]pyridazin-3-yl)pyridin-2-yl)-2-azaspiro[3.4]octan-6-amine], for which the values for the IC50 on IRAK1, against IRAK4 and at FLT3 were 37 nM, 8 nM and below 0.5 nM, respectively.
`FC1(F)CNCC1Nc1cccc(-c2cnc3ccc(-c4cnn5c4CCCC5)nn23)n1` (stereo not drawn) [Compound 59, N-(4,4-difluoropyrrolidin-3-yl)-6-(6-(4,5,6,7-tetrahydropyrazolo[1,5-a]pyridin-3-yl)imidazo[1,2-b]pyridazin-3-yl)pyridin-2-amine]: the IC50 is 621 nM at IRAK1, 12 nM at IRAK4 and 2 nM against FLT3.
Take `Cn1cc(-c2ccc3ncc(-c4cccc(NC5CC6(CNC6)C5)n4)n3n2)cn1` [Compound 35, N-(6-(6-(1-methyl-1H-pyrazol-4-yl)imidazo[1,2-b]pyridazin-3-yl)pyridin-2-yl)-2-azaspiro[3.3]heptan-6-amine]: the IC50 worked out at 2820 nM at IRAK1, 126 nM against IRAK4 and 3 nM at FLT3.
Turning to `Fc1cc(F)c2c(-c3ccc4ncc(-c5cccc(NC6CNCC6(F)F)n5)n4n3)cnn2c1` (stereo not drawn) [Compound 55, 6-(6-(4,6-difluoropyrazolo[1,5-a]pyridin-3-yl)imidazo[1,2-b]pyridazin-3-yl)-N-(4,4-difluoropyrrolidin-3-yl)pyridin-2-amine], the IC50 on IRAK1 is 6840 nM; against IRAK4 it was 113 nM; at FLT3, 16 nM.
Turning to `COc1cc2ncc(-c3cccc(N[C@H]4CNC[C@@H]4F)n3)n2nc1-c1cn[nH]c1` [Compound 119], the figures for the IC50 on IRAK1, on IRAK4 and against FLT3 were 75 nM, below 0.5 nM and below 0.5 nM, respectively.
For `FC(F)n1cc(-c2ccc3ncc(-c4cccc(N[C@H]5CNC[C@@H]5C(F)(F)F)n4)n3n2)cn1` [Compound 12, 6-(6-(1-(difluoromethyl)-1 H-pyrazol-4-yl)imidazo[1,2-b]pyridazin-3-yl)-N-((3R,4S)-4-(trifluoromethyl)pyrrolidin-3-yl)pyridin-2-amine], the results for the IC50 against IRAK1, against IRAK4 and at FLT3 were 2060 nM, 128 nM and 3 nM, respectively.
Regarding `FC(F)(F)[C@H]1CNC[C@@H]1Nc1cccc(-c2cnc3ccc(C4CC4)nn23)n1` [Compound 71, 6-(6-cyclopropylimidazo[1,2-b]pyridazin-3-yl)-N-((3R,4S)-4-(trifluoromethyl)pyrrolidin-3-yl)pyridin-2-amine], the IC50 was found to be 2650 nM on IRAK1, 36 nM against IRAK4 and 0.8 nM on FLT3.
Consider `CNc1ccc2ncc(-c3cccc(N[C@H]4CNC[C@@H]4F)n3)n2n1` [Compound 89, 3-(6-(((3S,4S)-4-fluoropyrrolidin-3-yl)amino)pyridin-2-yl)-N-methylimidazo[1,2-b]pyridazin-6-amine], for which the IC50 against IRAK1 was determined as 8050 nM; against IRAK4 it was 58 nM; on FLT3, 5 nM.
Taken in the same sequence, the figures for `FC(F)(F)[C@H]1CNC[C@@H]1Nc1cccc(-c2cnc3ccc(-c4cnn(C5CC5)c4)nn23)n1` [Compound 13, 6-(6-(1-cyclopropyl-1 H-pyrazol-4-yl)imidazo[1,2-b]pyridazin-3-yl)-N-((3R,4S)-4-(trifluoromethyl)pyrrolidin-3-yl)pyridin-2-amine] were 1840 nM, 106 nM and 2 nM.
Consider `CO[C@H]1CNC[C@@H]1Nc1cccc(-c2cnc3ccc(C4CC4)nn23)n1` [Compound 74, 6-(6-cyclopropylimidazo[1,2-b]pyridazin-3-yl)-N-((3S,4S)-4-methoxypyrrolidin-3-yl)pyridin-2-amine], for which the IC50 against IRAK1 is 5860 nM; against IRAK4, 148 nM; at FLT3, 4 nM.
For the compound `Cn1cc(-c2ccc3ncc(-c4cccc(NC5CNCC5(F)F)n4)n3n2)cn1` (stereo not drawn) [Compound 21, N-(4,4-difluoropyrrolidin-3-yl)-6-(6-(1-methyl-1H-pyrazol-4-yl)imidazo[1,2-b]pyridazin-3-yl)pyridin-2-amine], the values for the IC50 against IRAK1, on IRAK4 and against FLT3 were 497 nM, 38 nM and 6 nM, respectively.
On to `FC1(F)CNCC1Nc1cccc(-c2cnc3ccc(-c4cnn5ccccc45)nn23)n1` (stereo not drawn) [Compound 56, N-(4,4-difluoropyrrolidin-3-yl)-6-(6-(pyrazolo[1,5-a]pyridin-3-yl)imidazo[1,2-b]pyridazin-3-yl)pyridin-2-amine], for which the values for the IC50 against IRAK1, on IRAK4 and on FLT3 were 80 nM, 1 nM and 0.8 nM, respectively.
As for `c1cc(N[C@@H]2CCCNC2)nc(-c2cnc3ccc(-c4cnn(C5CC5)c4)nn23)c1` [Compound 17, (R)-6-(6-(1-cyclopropyl-1 H-pyrazol-4-yl)imidazo[1,2-b]pyridazin-3-yl)-N-(piperidin-3-yl)pyridin-2-amine], the IC50 against IRAK1 was 1820 nM; on IRAK4 it was 9 nM; against FLT3, below 0.5 nM.
